# Assay results published in patent US20240085429A1, “ALTERING PROTEIN FUNCTION BY PHARMACOLOGICAL TARGETING OF MEMBRANE DOMAINS” (University of Virginia Patent Foundation, priority 2021, published 2024).
# Structures can show the parent of a compound that is named as a salt.
# Assays:
# GPMVs from HeLa cells = assay: Di4 fluorescence lifetime imaging (lipid packing in GPMVs); parameters: species or system human; conditions: TLCK 1 μM, C6-ceramide 1 μM, MβCD 5 mM
# Excerpt: It was also of interest how TLCK and C6-ceramide impact other properties of the membrane compared to treatments such as cholesterol depletion that are commonly used to disrupt rafts in cells (Zidovetzki & Levitan, 2007). To test this, we examined their effects on membrane lipid packing and fluidity using a fluorescent reporter of membrane packing, Di-4-[…] (Di4) (Jin et al., 2006; Owen et al., 2006; Sezgin et al., 2014; Levental et al., 2020b; Lorent et al., 2020). As a control, we subjected GPMVs to cholesterol depletion using 5 mM MβCD. The photophysical characteristics of Di4, including its lifetime, are dependent on lipid packing in membranes. In particular, a lower Di4 lifetime is indicative of loose packing and a more fluid membrane environment whereas higher Di4 lifetimes point to a less fluid membranes and tighter lipid packing. […] The phase separated vesicles were characterized by two populations of lifetimes, corresponding to the Lo phase (higher lifetime) and Ld phase (lower lifetime) (FIGS. 11A-11F).
# GPMVs were prepared as previously described by Sezgin, E, et al., Nat Protoc 2012, 7 (6), 1042-51. In brief, HeLa cells were washed twice with GPMV buffer (2 mM CaCl2)/10 mM HEPES/0.15 M NaCl, pH 7.4), then washed twice with GPMV active buffer (GPMV buffer containing 25 mM formaldehyde and 2 mM DTT). Cells were then incubated with GPMV active buffer for 1-2 hours at 37° C. with shaking at 90-95 RPM. The GPMV-containing supernatant was decanted into a centrifuge tube and GPMVs were allowed to settle for 1 h. Aliquots of GPMVs (100 μL) were pipetted from the bottom of the Eppendorf tube into separate tubes and treated with DMSO (0.1%), 1 μM TLCK, 1 μM C6-ceramide or 5 mM MbCD. After 5 min, Di 4 […] (Di4) (Thermo Scientific) was added to a final concentration of […] from a stock solution of 1 mg/mL Di4 in ethanol. The GPMVs were then sandwiched between two coverslips coated with 1 mg/mL bovine serum albumin (BSA) solution and allowed to incubate for an additional 20 min prior to lifetime measurements.
# Di4 lifetime images were performed on a Leica TCS SP8 system comprising a Leica DMi8 inverted scanning confocal microscope with time-correlated single photon counting (TC-SPC) system and an 80 MHz-pulsed supercontinuum white light laser which allows continuously tunable excitation in the visible range coupled with filter-free detection. Samples were imaged using an HC PL APO CS2 63X/1.20 water objective. Di4 was excited at 488 nm and the emission was collected in the 550-800 nm range. The photon count rate was kept under 0.5 photons per laser pulse by adjusting the laser power, and sufficient frames were cumulatively acquired to obtain at least 100 photons per pixel. The fluorescence decay curves were fit with a bi-exponential re-convolution function adjusted to the instrument response function, and the average intensity-weighted lifetime was calculated for individual vesicles or area of interest and represented in the FLIM images as Di4 lifetime. Data are reported from two independent experiments. Statistical analyses were performed using GraphPad Prism 9.3.0.
# [1] = tested on: GPMVs isolated from HeLa cells; assay: High-throughput screen of the Cayman bioactive lipid library for effects on GPMV phase behavior (% phase separated vesicles, NBD-DSPE phase preference); parameters: species or system human; conditions: HeLa GPMVs, RT; for Effect on Pang(ϕ): NBD-DSPE raft phase preference; for Effect on Pang(ϕ) / % phase separated z-score / Pordered z-score: final 1 μM; for % phase separated z-score / Pordered z-score: Table 4; for Pordered z-score: NBD-DSPE; for Effect on % phase separated vesicles: final drug concentration 1 μM, NBD-DSPE channel
# Protocol: This approach is not practical for high throughput screening applications, which typically are performed at a single temperature. Changes in the percentage of phase-separated GPMVs were monitored at a single temperature in response to the addition of small molecules as a surrogate for measuring Tmisc directly (FIG. 1A). This approach requires that a significant fraction of GPMVs are phase separated under control conditions, such that experimentally-induced changes can be readily detected.
# In phase separated vesicles these markers are enriched in their preferred domains, such that a given vesicle contains a co-existing NBD-DSPE-rich phase and a DiD-rich phase. In contrast, NBD-DSPE and DiD colocalize in a single uniform phase in GPMVs that are not phase separated. We also optimized conditions to isolate and plate GPMVs in multi-well plates.
# To provide proof-of-concept, the Cayman lipid library containing ˜850 bioactive lipid-like compounds in the Vanderbilt High-throughput Screening Facility was screened, using […] of each compound across three independent screens. All screens were carried out using an automated microscope/high-content imaging system and robotic plate handler at RT. […] Compounds were initially scored based on their capacity to alter the percentage of phase separated vesicles (FIG. 2A).
# HeLa cells were obtained from ATCC (cat #CCL-2) and cultured at 37° C. in 5% CO2 in a humidified tissue culture incubator. […] In brief, cells were plated in 150 mm tissue culture dishes the day before the experiment, to yield a confluence of 70-80% the day of the experiment. To generate GPMVs, cells were rinsed twice in 10 ml of GPMV buffer (2 mM DTT, 25 mM formaldehyde, 150 mM NaCl, 10 mM HEPES, 2 mM CaCl2), pH=7.4) and subsequently incubated in 12 ml of GPMV buffer at 37° C. with gentle shaking at 70 rpm for 1.5 h. The raft marker NBD-DSPE (1,2-distearoyl-sn-glycero-3-phosphoethanolamine-N-(7-nitro-2-1,3-benzoxadiazol-4-yl; Avanti Polar Lipids) and the non-raft marker DiD (1,1′-dioctadecyl-3,3,3′,3′-tetramethylindodicarbocyanine perchlorate; cat #D307 Thermo Scientific) were added from stock solutions in ethanol to the GPMV suspension at final concentrations of 5-6 μg/ml and 1 μg/ml, respectively, for the initial screenings. For some experiments, cells were prelabelled with 5 μg/ml DiD for 8 min at 4° C. and washed several times prior to GPMVs generation. Screening was performed the same day that GPMVs were generated.
# […] GPMVs suspension in GPMV buffer was then added to each well of a 96-well plate to obtain a final drug concentration of 1 μM. The GPMVs were allowed to settle to the bottom of the plates for 1.5 h prior to imaging. Samples were prepared and imaged at RT. The screen was repeated on three different days using three separately prepared batches of GPMVs (3 biological replicates).
# Image acquisition was performed with an ImageXpress Micro XL automated microscope (Molecular Devices) using a Nikon 40X 0.6 NA Super Plan Fluor ELWD objective and a Lumencor Sola solid-state light source. Laser autofocus was employed at each site to obtain the best focus z-plane for each channel. […] Sixteen sites were captured per well using a 4.2 MP widefield scientific cMOS camera with a camera binning of 1. Each plate took approximately 1.3 h to image. Multiple plates were loaded to a plate carousel (ThermoScientific), shuttled to/from the ImageXpress via a ThermoScientific CRS F3 robot arm, and automatically run through the Momentum scheduling software (Thermo). To analyze the data, images and metadata were exported as TIFF files and subjected to image analysis using a custom MATLAB-based program as described below.
# [2] = tested on: human peripheral myelin protein 22 (PMP22); assay: HTS of FDA-approved drug library for compounds that alter phase partitioning of PMP22 in GPMVs; conditions: for shift of PMP22 phase preference in favor of the ordered (raft) phase / hit class in PMP22 screen: 10 micromolar; for shift of PMP22 phase preference in favor of the ordered (raft) phase: control value 78%, reproducible at 1 micromolar; for hit class in PMP22 screen: 1184 compound library of FDA-approved drugs; for effect on relative ordered (raft) vs. disordered phase proportions: in the absence or presence of PMP22
# Excerpt: By way of example and not limitation, in some embodiments PMP22 containing a MYC epitope sequence was employed in the GPMVs (hereafter referred to as “PMP22”, such as by expressing a MYC-Tagged PMP22 in Hela cells, followed by formation of PMP22 containing GPMVs, followed by addition of a commercial fluorescently labeled anti-MYC antibody to confer fluorescence to PMP22 in GPMVs, thereby making PMP22 detectable to enable its quantitation in the raft phase domains versus in the non-raft phase domains. See Marinko et al. (2020) Proc Natl Acad Sci USA 117(25):14168-14177.
# The assay was scaled up to carry out high throughput screens (HTS). The strategy for these screens is similar to those outlined for our approach to finding compounds that shift the raft vs. non-raft phase domain distribution in GPMVs, except that in this case we were interested in discovering compounds that either shift PMP22 out of rafts or enhance its partitioning into the ordered raft phase domain. This pilot HTS screen involved the 1184 compound library of FDA-approved drugs at a concentration of 10 micromolar each and was carried out in the Vanderbilt HTS Core. We predicted that select compounds might sometimes change not only the phase partitioning of PMP22, but also change the actual amounts of ordered (raft) versus disordered phase domains that are present. We also wondered whether PMP22 and certain compounds might act synergistically (through any one of several possible mechanisms) to alter membrane phase behavior. This could potentially cause the compounds to have different effects on the ratio of raft versus disordered domains in the absence relative to the presence of the PMP22 protein. To test these possibilities, we compared the results of our screen to the results of preliminary screens carried out on the same compounds in GPMVs lacking expressed PMP22. This allowed us to directly evaluate the effects of the compounds under both conditions. The plots shown in FIGS. 28A and 28B, as well as additional data not shown reveal several classes of PMP22-impacting hits from this 1184 compound library: […]
Compound,Effect on Pang(ϕ) [1],% phase separated z-score [1],Pordered z-score [1],Effect on % phase separated vesicles [1],also measured
MβCD,,,,,"phase state of GPMVs in FLIM images (GPMVs from HeLa cells; room temperature): multiple domains with the same lifetime; average Di4 lifetime (GPMVs from HeLa cells; single-phase GPMVs (MβCD: average across all domains), control 2.53±0.06 ns, mean±SD): 1.99±0.09 ns"
"CC(C)c1ccc2c(c1)c(SC(C)(C)C)c(CC(C)(C)C(=O)O)n2Cc1ccc(Cl)cc1 [MK-886, 1-[(4-chlorophenyl)methyl]-3-[(1,1-dimethylethyl)thio]-α,α-dimethyl-5-(1-methylethyl)-1H-indole-2-propanoic acid]",↑,0.67,2.10,,
CCCCCCCCCCCCCCCCSP(=O)([O-])OCC[N+](C)(C)C [thio-Miltefosine],↑,2.12,2.78,↑,
CCCCCCCCCCCCCCCCOC[C@H](COP(=O)([O-])OCC[N+](C)(C)C)OC(=O)NC [Methylcarbamyl PAF C-16],↑,−0.58,2.20,,
"COc1ccc(-c2nc(C(=O)N3CCN(C)CC3)sc2-c2ccc(OC)cc2)cc1.Cl [FR122047 (hydrochloride), 1-[[4,5-bis(4-methoxyphenyl)-2-thiazolyl]carbonyl]-4-methyl-piperazine, monohydrochloride]",↓,0.12,−2.03,,
CSc1ccc2c(c1)N(CCC1CCCCN1C)c1ccccc1S2 (stereo not shown) [Thioridazine-HCl],,,,,shift of PMP22 phase preference in favor of the ordered (raft) phase [2]: ~10%; hit class in PMP22 screen [2]: Class I; effect on relative ordered (raft) vs. disordered phase proportions [2]: without significantly perturbing
CCCCC/C=C\C/C=C\C/C=C\C/C=C\CCCC(=O)NCCF [Arachidonoyl-2′-Fluoroethylamide],↑,1.90,2.38,,
CN(C)c1ccc(C(=C2C=CC(=[N+](C)C)C=C2)c2ccc(N(C)C)cc2)cc1 [Crystal violet],,,,,hit class in PMP22 screen [2]: false positive
"CCCCCCCCCCCCCCCCOC[C@H](COP(=O)([O-])OCC[N+](C)(C)C)OC [2-O-methyl PAF C-16, 1-O-hexadecyl-2-O-methyl-sn-glyceryl-3-phosphorylcholine]",↑,−1.06,2.68,,
(−)-Epigallocatechin Gallate,,4.33,1.42,↑,
"CCCCCCCCCCCCCCOc1ccc(C(=O)O)o1 [TOFA, 5-(Tetradecyloxy)-2-furancarboxylic acid]",,−3.41,−1.20,↓,
"O=c1[nH]c(-c2ccc(C(F)(F)F)cc2)nc2c1CSCC2 [XAV939, 3,5,7,8-tetrahydro-2-[4-(trifluoromethyl)phenyl]-4H-thiopyrano[4,3-d]pyrimidin-4-one]",,2.33,0.58,↑,
Clc1ccc2c(c1)CCc1cccnc1C2=C1CCNCC1 [Desloratadine],,,,,shift of PMP22 phase preference in favor of the ordered (raft) phase [2]: ~10%; hit class in PMP22 screen [2]: Class I; effect on relative ordered (raft) vs. disordered phase proportions [2]: without significantly perturbing
